The source of these data is the METLIN SMRT retention time set (Domingo-Almenara et al. 2019).

The series is described as follows: gradient 5% acetonitrile 3 min, to 50% in 2 min, to 85% in 15 min, held 3 min, 100 µL/min. The following applies: column: Zorbax Extend-C18 2.1 x 50 mm; eluents: water / acetonitrile, 0.1% formic acid. An outline of the steps: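 Retention times come from adduct peaks that were picked computationally and then checked by hand. The standards, pure and pooled in mixtures of ~100 molecules, were run on a Zorbax Extend-C18 column (2.1 × 50 mm, 1.8 μm) at 100 μL/min with water and acetonitrile, each with 0.1% formic acid. Detection was by quadrupole time-of-flight mass spectrometry in positive and negative ionization mode, with a dead volume of 40 μL and a dwell volume of 900 μL.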
As for `COc1ccccc1-c1nc(Cn2nnc(-c3nc(-c4ccc(C(F)(F)F)cc4)no3)c2C)c(C)o1`, the RP-LC retention time amounted to 1240 s.

On to `Cc1cccc(-n2c(=O)c3c(cc(C)n3C)n(CC(=O)Nc3ccc(C)cc3Cl)c2=O)c1`, for which the RP-LC retention time amounted to 942 s. For the compound `O=C(O)C1CCN(c2nc3ccc(-c4ccccc4F)nc3s2)CC1`, the RP-LC retention time is 869 s. The same measure for `NC(=O)C1CCN(S(=O)(=O)c2ccc(N3C(=O)CCS3(=O)=O)cc2)CC1`: 622 s; for `Cc1noc(CN2CCN(C3CCN(Cc4ccc(C(F)(F)F)cc4)C3)C2=O)n1` (centres undefined): 645 s.

As to `CCN(CC)S(=O)(=O)c1cccc(-c2cn3cc(C)ccc3n2)c1`, the RP-LC retention time was 598 s. Consider `COc1cc(-c2nnc(-c3ccc(C)c(S(=O)(=O)N4CCCC4)c3)o2)cc(OC)c1OC`, for which the RP-LC retention time is 986 s. Turning to `O=C(CCCCCCC(=O)Nc1ccccc1)NO`, the RP-LC retention time amounted to 660 s.

In turn, `CCOC(=O)c1nc(NC(CC)CN(C)Cc2ccccc2)c2c(C)noc2n1` (centres undefined) yielded an RP-LC retention time of 672 s. Under `Cc1ccc(NC(=O)N2CCC(n3cnc4c(Cl)cccc4c3=O)CC2)cc1C` stands 877 s.

For the compound `O=c1ccc(-c2ccccc2)nn1Cc1nc(-c2ccccc2Cl)no1`, the RP-LC retention time came to 976 s.

`CCOC(=O)CNC(=O)N1CCCC1c1cccc(F)c1` (centres undefined) displayed an RP-LC retention time of 745 s. For the compound `CCc1nn2c(CNC(=O)c3ccc(C)c(C)c3)c(-c3ccccc3)nc2s1`, the RP-LC retention time came out at 983 s. Compound `CCC1Oc2ccc(S(=O)(=O)N3CCC(C(=O)Nc4cccc(C)c4)CC3)cc2NC1=O` (centres undefined) registered an RP-LC retention time of 814 s. Under `O=C(CN1CCCC(COCc2ccccc2)C1)Nc1nccs1` (centres undefined) stands 570 s; under `COc1ccc(-c2nnc(-c3ccc(C)c(S(=O)(=O)N4CCCCC4)c3)o2)cc1`, 1120 s. `COC(=O)C(C)Sc1ncnc2sc(C)c(C)c12` (centres undefined) gave an RP-LC retention time of 955 s. Consider `CCN(CCN(C)C)c1nc(-c2ccc(OC)cc2)nc2ccccc12`, for which the RP-LC retention time is 562 s.

In turn, `CCOc1ccc(-n2c(CN3CCN(C(=O)NCCC(C)C)CC3)nc3cccnc32)cc1` gave an RP-LC retention time of 684 s. Under `Cn1cc(-c2ccncc2)cc1C(=O)NCc1ccc(Br)cc1` stands 662 s. `Cc1nc(Nc2ccc(Br)cn2)sc1C(=O)N1CCC(C(N)=O)CC1` had an RP-LC retention time of 642 s. The compound `COC(=O)c1cc2c(cn1)[nH]c1ccccc12` registered an RP-LC retention time of 704 s.

`O=C(Cn1nc2c(cc1=O)CCCC2)Nc1nc(-c2cccnc2)cs1` showed an RP-LC retention time of 607 s. `CC1CCN(c2ccc(-c3cccc(NC(=O)NCc4ccccc4)c3)nn2)CC1` gave an RP-LC retention time of 747 s. The compound `CCC(C)NC(=O)N1CCc2c(c(-c3nc(-c4cccc(F)c4)no3)nn2C)C1` (centres undefined) registered an RP-LC retention time of 904 s. Take `O=C([C@@H]1C[C@H](Oc2ccccc2)CN1C(=O)C1CCC1)N1CCCC1`: the RP-LC retention time is 750 s. `COc1ccc(-c2noc(CNC(=O)c3cc(C)nc4ccccc34)n2)cc1OC`: the RP-LC retention time was found to be 652 s. Take `CC(C)COc1ccc(C(=O)N(Cc2ccc(Br)o2)C2CCS(=O)(=O)C2)cc1` (centres undefined): the RP-LC retention time turned out to be 1050 s. The same measure for `Cc1ccc2nc(C(=O)N3CCN(c4ccc(F)cc4)CC3)cn2c1`: 650 s; for `CN(C)CCCNC(=O)C1CCN(c2nc3ccc(-c4cccc(F)c4)nc3s2)CC1`: 691 s. Under `COc1ccccc1N1CCN(C(=O)c2cc(C3CC3)[nH]n2)CC1` stands 699 s; under `CC(C)CCNC(=O)CCC(=O)N1CC2CCCN2c2ccccc21` (centres undefined), 902 s; under `O=C(OCC12CC3CC(CC(C3)C1)C2)c1ccc(NCc2cc(O)ccc2O)cc1`, 1080 s. In turn, `COc1ccc(Nc2n[nH]nc2C(=O)Nc2ccccc2Br)cc1` displayed an RP-LC retention time of 1050 s. Regarding `CN(C)C(CNC(=O)c1cc(=O)c2cc(Cl)ccc2o1)c1ccccc1` (centres undefined), the RP-LC retention time turned out to be 650 s. Under `Cc1cccc(CNc2nnc(-c3nnc(C)o3)c3ccccc23)c1` stands 831 s; under `COCc1nncn1C1CCN(S(=O)(=O)c2ccc(C(F)(F)F)cc2)CC1`, 764 s. Take `COc1ccc(-c2noc(C3CCCN3C(=O)c3cccnc3SC)n2)cc1` (centres undefined): the RP-LC retention time turned out to be 907 s.

Regarding `CCCn1c(=O)sc2cc(S(=O)(=O)N3CCN(C(=O)c4ccnn4C)CC3)ccc21`, the RP-LC retention time came out at 792 s. The compound `Cc1ccc(CNC(=O)c2ccc3ncnc(N4CCCC4)c3c2)cc1` yielded an RP-LC retention time of 656 s. On to `O=C(Cc1ccsc1)N1CCC(n2c(-c3ccco3)nc3cccnc32)C1` (centres undefined), for which the RP-LC retention time worked out at 689 s. The same measure for `Cc1ccc(-c2coc(-c3cccc(NS(=O)(=O)c4cccc5nsnc45)c3)n2)cc1`: 1180 s; for `O=C(c1cccnc1N1CCNC(c2ccccc2)C1)N1CCN(c2ncccn2)CC1` (centres undefined): 604 s; for `O=C(c1ccoc1)N1CCC(F)(C(=O)NC2CC2)CC1`: 569 s. As for `Cc1cc(-c2nnc(C3CC3)o2)c(C)n1CC(=O)NCc1ccc(Cl)cc1`, the RP-LC retention time is 850 s. Compound `Cn1c(=O)c2ccnn2c2ccc(C(=O)NC3CCCCC3)cc21` displayed an RP-LC retention time of 742 s. Regarding `Cc1ccc(CC(=O)N2CCc3nc(-c4ccc(Cl)cc4)ncc3C2)cc1`, the RP-LC retention time worked out at 1150 s. Consider `COc1ccc(-c2cn3c(CC(=O)NCc4ccccc4)csc3n2)cc1OC`, for which the RP-LC retention time is 693 s. As for `CCc1cc(C(=O)Nc2ccc(C)cc2)nc2ccnn12`, the RP-LC retention time was determined as 1060 s. Take `CCOCCCNC(=O)C1CCCN(c2nnc(C)c3c(C)n(-c4ccccc4)nc23)C1` (centres undefined): the RP-LC retention time worked out at 655 s. `Cc1ccc(CNC(=O)C(C)n2nc(C)c3nn(-c4ccccc4)c(-n4cccc4)c3c2=O)o1` (centres undefined) displayed an RP-LC retention time of 987 s.

`CCc1csc(-c2ccc(N3CCN(C(=O)Cc4ccc(F)cc4)CC3)nc2)n1` returned an RP-LC retention time of 925 s. The compound `COc1ccc(NC(=O)c2nnn(-c3ccc(C)c(F)c3)c2C)cc1Cl` registered an RP-LC retention time of 1040 s. For the compound `O=C(Nc1ccccc1F)N1[C@H]2CC[C@@H]1c1cncnc1C2`, the RP-LC retention time turned out to be 646 s. With `CCn1nc(CNC(=O)Cc2ccccc2F)c2ccccc21`, the RP-LC retention time turned out to be 791 s. As for `CCC(=O)Nc1ccc2nc(N3CCN(CC(=O)Nc4c(C)cccc4C)CC3)cc(C(=O)O)c2c1`, the RP-LC retention time came to 594 s. On to `O=C(Nc1cccc(F)c1)c1c(O)c2cccnc2n(-c2ccc(F)cc2)c1=O`, for which the RP-LC retention time came out at 1250 s. The compound `CCc1nc(-c2csc(S(=O)(=O)N3CCCC(C(=O)Nc4ccc(C)cc4Cl)C3)c2)no1` (centres undefined) yielded an RP-LC retention time of 1100 s. For `CCC1CCCCN1C(=O)c1cnc2nc(C)ccc2c1Nc1cc(C)ccc1C` (centres undefined), the RP-LC retention time was determined as 737 s.
